Data published in US11040987B2 (TenNor Therapeutics Limited, priority 2019, dated 2021).
≈ marks a conversion by molar mass, not a printed value.

What was measured:
Assay type in all cases: cell-based
E. faecium ATCC 700221 = experiment: MIC determination, broth microdilution, ESKAPE panel; details: Enterococcus faecium, ATCC700221; iron-depleted cation-adjusted Mueller-Hinton broth, 2,2-dipyridyl 160 μM; 37° C., 18-20 hours; read-out: MIC E. faecium ATCC 700221
Experimental: (§1) Minimum inhibitory concentration (MIC) is determined by a broth microdilution method according to the recommendation of the Clinical and Laboratory Standards Institute (CLSI) with minor modification. […] Strains of an ESKAPE panel (E. faecium ATCC 700221, S. aureus ATCC 29213, K. pneumoniae ATCC 43816, A. baumannii ATCC 19606, P. aeruginosa ATCC 27853 and Escherichia coli ATCC 25922) were obtained originally from the American Type Culture Collection (ATCC) and used for MIC determinations of compounds. The bacteria inoculum in the test is […].

S. aureus ATCC 29213 = experiment: as above; details: Staphylococcus aureus, ATCC29213; iron-depleted cation-adjusted Mueller-Hinton broth, 2,2-dipyridyl 160 μM; 37° C., 18-20 hours; read-out: MIC S. aureus ATCC 29213
Experimental: as §1

A. baumannii ATCC 19606 = experiment: as above; details: Acinetobacter baumannii, ATCC19606; iron-depleted cation-adjusted Mueller-Hinton broth, 2,2-dipyridyl 160 μM; 37° C., 18-20 hours; read-out: MIC A. baumannii ATCC 19606
Experimental: as §1

K. pneumoniae ATCC 43816 = experiment: as above; details: Klebsiella pneumoniae, ATCC43816; iron-depleted cation-adjusted Mueller-Hinton broth, 2,2-dipyridyl 160 μM; 37° C., 18-20 hours; read-out: MIC K. pneumoniae ATCC 43816
Experimental: as §1

[1] = system: Escherichia coli ATCC 25922; experiment: as above; details: ATCC25922, iron-depleted cation-adjusted Mueller-Hinton broth, 2,2-dipyridyl 160 μM, 37° C., 18-20 hours, read-out: MIC E. coli ATCC 25922
Experimental: as §1

P. aeruginosa ATCC 27853 = experiment: as above; details: Pseudomonas aeruginosa, ATCC27853; iron-depleted cation-adjusted Mueller-Hinton broth, 2,2-dipyridyl 160 μM; 37° C., 18-20 hours; read-out: MIC P. aeruginosa ATCC 27853
Experimental: as §1

A.b TNP 41709 = experiment: MIC against A. baumannii clinical isolates, alone and in combination with antibiotics; details: for MIC: Acinetobacter baumannii, TNP41709, Compounds alone, read-out: MIC A.b TNP 41709
A.b TNP 41708 = experiment: as above; details: for MIC: Acinetobacter baumannii, TNP41708, read-out: MIC A.b TNP 41708
Experimental: as §1

A.b TNP 41704 = experiment: as above; details: for MIC: Acinetobacter baumannii, TNP41704, Compounds alone, read-out: MIC A.b TNP 41704

SMILES | MIC (E. faecium ATCC 700221) [µg/mL] | MIC (S. aureus ATCC 29213) [µg/mL] | MIC (A. baumannii ATCC 19606) [µg/mL] | MIC (K. pneumoniae ATCC 43816) [µg/mL] | MIC [1] [µg/mL] | MIC (P. aeruginosa ATCC 27853) [µg/mL] | MIC (A.b TNP 41709) [µg/mL] | MIC A.b TNP 41709 (A.b TNP 41709; Compounds + meropenem (1:1)) [µg/mL] | MIC A.b TNP 41709 (A.b TNP 41709; Compounds + sulbactam (1:1)) [µg/mL] | MIC (A.b TNP 41708) [µg/mL] | MIC A.b TNP 41708 (A.b TNP 41708; Compounds + meropenem (1:1)) [µg/mL] | MIC A.b TNP 41708 (A.b TNP 41708; Compounds + sulbactam (1:1)) [µg/mL] | MIC (A.b TNP 41704) [µg/mL] | MIC A.b TNP 41704 (A.b TNP 41704; Compounds + meropenem (1:1)) [µg/mL] | MIC A.b TNP 41704 (A.b TNP 41704; Compounds + sulbactam (1:1)) [µg/mL] | MIC A.b TNP 41709 (A.b TNP 41709; Compounds + Imipenem (1:1)) [µg/mL] | MIC A.b TNP 41708 (A.b TNP 41708; Compounds + Imipenem (1:1)) [µg/mL] | MIC A.b TNP 41704 (A.b TNP 41704; Compounds + Imipenem (1:1)) [µg/mL]
C[C@]1(c2cc(C(=O)c3ccc(O)c(O)c3)on2)[C@H](C(=O)O)N2C(=O)C[C@H]2S1(=O)=O [Example 112, (2S,3R,5R)-3-(5-(3,4-dihydroxybenzoyl)isoxazol-3-yl)-3-methyl-7-oxo-4-thia-1-azabicyclo[3.2.0]heptane-2-carboxylic acid 4,4-dioxide] | > 64 | > 64 | 32 (≈ 75.8 µM) | > 64 | > 64 | > 64 | > 64 | 8 | 2 | > 64 | 16 | 8 | > 64 | 16 | 2 |  |  | 
CN(NC(=O)OC[C@@]1(C)[C@H](C(=O)O)N2C(=O)C[C@H]2S1(=O)=O)C(=O)c1ccc(O)c(O)c1Cl [Example 77] | > 128 | > 128 | 0.25 (≈ 0.508 µM) | 16 (≈ 32.5 µM) | 64 (≈ 130 µM) | > 128 | > 128 | 16 | 16 | > 128 | 32 | 32 | > 128 | 16 | 8 |  |  | 
C[C@H](NC(=O)c1ccc(O)c(O)c1Cl)C(=O)N/N=C/[C@@]1(C)[C@H](C(=O)O)N2C(=O)C[C@H]2S1(=O)=O [Example 62, (2S,3R,5R)-3-((E)-(2-((S)-2-(2-chloro-3,4-dihydroxybenzamido)propanoyl)hydrazono)methyl)-3-methyl-7-oxo-4-thia-1-azabicyclo[3.2.0]heptane-2-carboxylic acid 4,4-dioxide] | > 128 | 128 (≈ 255 µM) | 4 (≈ 7.95 µM) | > 128 | > 128 | > 128 | > 128 | 2 | 2 | > 128 | 4 | 8 | > 128 | 4 | 8 |  |  | 
C[C@]1(/C=N/NC(=O)CCNC(=O)c2ccc(O)c(O)c2Cl)[C@H](C(=O)O)N2C(=O)C[C@H]2S1(=O)=O [Example 60, (2S,3R,5R)-3-((E)-(2-(3-(2-chloro-3,4-dihydroxybenzamido)propanoyl)hydrazono)methyl)-3-methyl-7-oxo-4-thia-1-azabicyclo[3.2.0]heptane-2-carboxylic acid 4,4-dioxide] | > 128 | > 128 | 2 (≈ 3.98 µM) | 16 (≈ 31.8 µM) | > 128 | > 128 | > 128 | 2 | 8 | > 128 | 2 | 8 | 64 | 2 | 1 | 1 | 2 | 2
C[C@@H](O)[C@H]1C(=O)N2C(C(=O)O)=C(S[C@@H]3CN[C@H](C(=O)N(C)C)C3)[C@H](C)[C@H]12 [Meropenem, reference compound] | > 128 | 0.125 (≈ 0.326 µM) | 1 (≈ 2.61 µM) | < 0.06 | < 0.06 | 0.5 (≈ 1.3 µM) | 128 |  |  | 128 |  |  | 64 |  |  |  |  | 
CN(NC(=O)c1ccc(O)c(O)c1Cl)C(=O)OC[C@@]1(C)[C@H](C(=O)O)N2C(=O)C[C@H]2S1(=O)=O [Example 80, (2S,3R,5R)-3-(((2-(2-chloro-3,4-dihydroxybenzoyl)-1-methylhydrazinecarbonyl)oxy)methyl)-3-methyl-7-oxo-4-thia-1-azabicyclo[3.2.0]heptane-2-carboxylic acid 4,4-dioxide] | > 128 | > 128 | 0.25 (≈ 0.508 µM) | 16 (≈ 32.5 µM) | 64 (≈ 130 µM) | > 128 | > 128 | 32 | 8 | > 128 | 64 | 32 | > 128 | 16 | 4 |  |  | 
C[C@]1(/C=N/NC(=O)Cc2ccc(O)c(O)c2)[C@H](C(=O)O)N2C(=O)C[C@H]2S1(=O)=O [Example 20, (2S,3R,5R)-3-((E)-(2-(2-(3,4-dihydroxyphenyl)acetyl)hydrazono)methyl)-3-methyl-7-oxo-4-thia-1-azabicyclo[3.2.0]heptane-2-carboxylic acid 4,4-dioxide] | > 128 | 32 (≈ 77.8 µM) | 64 (≈ 156 µM) | > 128 | > 128 | > 128 | > 128 | 8 | 16 | > 128 | 8 | 8 | > 128 | 8 | 4 |  |  | 
CN(NC(=O)c1ccc(O)c(O)c1)C(=O)OC[C@@]1(C)[C@H](C(=O)O)N2C(=O)C[C@H]2S1(=O)=O [Example 76, (2S,3R,5R)-3-(((2-(3,4-dihydroxybenzoyl)-1-methylhydrazinecarbonyl)oxy)methyl)-3-methyl-7-oxo-4-thia-1-azabicyclo[3.2.0]heptane-2-carboxylic acid 4,4-dioxide] | > 128 | > 128 | 1 (≈ 2.19 µM) | > 128 | > 128 | > 128 | > 128 | 16 | 8 | > 128 | 32 | 16 | > 128 | 16 | 8 |  |  | 
